Experimental data published in publication PMC8330742, “New benzothieno[2,3-c]pyridines as non-steroidal CYP17 inhibitors: design, synthesis, anticancer screening, apoptosis induction, and in silico ADME profile studies” (Journal of Enzyme Inhibition and Medicinal Chemistry, 2021).

Assays:
[1] = tested on: CAKI-1; test: NCI-60 SRB screen; type: cell-based, human; details: Homo sapiens; CAKI-1; single dose 10^−5 M; read-out: Growth inhibition (%)
[2] = tested on: NCI-H322M; test: NCI-60 SRB screen; type: cell-based, human; details: Homo sapiens, single dose 10^−5 M, read-out: Growth inhibition (%)
[3] = tested on: A549/ATCC; test: NCI-60 SRB screen; type: cell-based, human; details: Homo sapiens, single dose 10^−5 M, read-out: Growth inhibition (%)
[4] = tested on: KM12; test: NCI-60 SRB screen; type: cell-based, human; details: Homo sapiens; KM12; single dose 10^−5 M; read-out: Growth inhibition (%)
[5] = tested on: UACC-62; test: NCI-60 SRB screen; type: cell-based, human; details: Homo sapiens; UACC-62; single dose 10^−5 M; read-out: Growth inhibition (%)
[6] = tested on: UACC-257; test: NCI-60 SRB screen; type: cell-based, human; details: Homo sapiens, UACC-257; UACC-275 (so in the source); single dose 10^−5 M; read-out: Growth inhibition (%)
[7] = tested on: HCT-15; test: NCI-60 SRB screen; type: cell-based, human; details: Homo sapiens; HCT-15; single dose 10^−5 M; read-out: Growth inhibition (%)
[8] = tested on: EKVX; test: NCI-60 SRB screen; type: cell-based, human; details: Homo sapiens, single dose 10^−5 M, read-out: Growth inhibition (%)
[9] = tested on: MDA-MB-435; test: NCI-60 SRB screen; type: cell-based; details: Homo sapiens, MDA-MB-435, read-out: Growth inhibition (%)
[10] = tested on: SK-MEL-2; test: NCI-60 SRB screen; type: cell-based, human; details: Homo sapiens; SK-MEL-2; single dose 10^−5 M; read-out: Growth inhibition (%)
[11] = tested on: SF-295; test: NCI-60 SRB screen; type: cell-based, human; details: Homo sapiens; SF-295; single dose 10^−5 M; read-out: Growth inhibition (%)
[12] = tested on: panel of 60 cancer cell lines; test: NCI-60 SRB screen, mean or range over the panel; type: cell-based, human; details: Homo sapiens; mean over the cell lines; single dose 10^−5 M; read-out: Mean growth inhibition (%)
[13] = tested on: RXF 393; test: NCI-60 SRB screen; type: cell-based, human; details: Homo sapiens; RXF 393; single dose 10^−5 M; read-out: Growth inhibition (%)
[14] = tested on: OVCAR-4; test: NCI-60 SRB screen; type: cell-based, human; details: Homo sapiens; OVCAR-4; single dose 10^−5 M; read-out: Growth inhibition (%)
[15] = tested on: OVCAR-8; test: NCI-60 SRB screen; type: cell-based, human; details: Homo sapiens; OVCAR-8; single dose 10^−5 M; read-out: Growth inhibition (%)
[16] = tested on: COLO 205; test: NCI-60 SRB screen; type: cell-based, human; details: Homo sapiens; COLO 205; single dose 10^−5 M; read-out: Growth inhibition (%)
[17] = tested on: 786-0; test: NCI-60 SRB screen; type: cell-based; details: Homo sapiens; 786-0; single dose 10^−5 M; read-out: Growth inhibition (%)
[18] = tested on: SF-268; test: NCI-60 SRB screen; type: cell-based, human; details: Homo sapiens; SF-268; single dose 10^−5 M; read-out: Growth inhibition (%)
[19] = tested on: NCI-H226; test: NCI-60 SRB screen; type: cell-based, human; details: Homo sapiens; NCI-H226; single dose 10^−5 M; read-out: Growth inhibition (%)
[20] = tested on: HOP-92; test: NCI-60 SRB screen; type: cell-based, human; details: Homo sapiens; HOP-92; single dose 10^−5 M; read-out: Growth inhibition (%)
[21] = tested on: HCT-116; test: NCI-60 SRB screen; type: cell-based, human; details: Homo sapiens; HCT-116; single dose 10^−5 M; read-out: Growth inhibition (%)
[22] = tested on: HL-60(TB); test: NCI-60 SRB screen; type: cell-based, human; details: Homo sapiens; HL-60 (TB); single dose 10^−5 M; read-out: Growth inhibition (%)
[23] = tested on: MALME-3M; test: NCI-60 SRB screen; type: cell-based, human; details: Homo sapiens, single dose 10^−5 M, read-out: Growth inhibition (%)
[24] = tested on: NCI-H460; test: NCI-60 SRB screen; type: cell-based, human; details: Homo sapiens; NCI-H460; single dose 10^−5 M; read-out: Growth inhibition (%)
[25] = tested on: CCRF-CEM; test: NCI-60 SRB screen; type: cell-based; details: Homo sapiens, single dose 10^−5 M, read-out: Growth inhibition (%)
[26] = tested on: ACHN; test: NCI-60 SRB screen; type: cell-based; details: Homo sapiens, single dose 10^−5 M, read-out: Growth inhibition (%)
[27] = tested on: SK-MEL-5; test: NCI-60 SRB screen; type: cell-based, human; details: Homo sapiens; SK-MEL-5; single dose 10^−5 M; read-out: Growth inhibition (%)
[28] = tested on: NCI/ADR-RES; test: NCI-60 SRB screen; type: cell-based, human; details: Homo sapiens, single dose 10^−5 M, read-out: Growth inhibition (%)
[29] = tested on: NCI-H23; test: NCI-60 SRB screen; type: cell-based, human; details: Homo sapiens; NCI-H23; single dose 10^−5 M; read-out: Growth inhibition (%)
[30] = tested on: SW-620; test: NCI-60 SRB screen; type: cell-based; details: Homo sapiens; SW-620; single dose 10^−5 M; read-out: Growth inhibition (%)
[31] = tested on: MOLT-4; test: NCI-60 SRB screen; type: cell-based; details: Homo sapiens; MOLT-4; single dose 10^−5 M; read-out: Growth inhibition (%)
[32] = tested on: IGROV1; test: NCI-60 SRB screen; type: cell-based, human; details: Homo sapiens, IGROV-1; IGROV1; single dose 10^−5 M; read-out: Growth inhibition (%)
[33] = tested on: M14; test: NCI-60 SRB screen; type: cell-based, human; details: Homo sapiens; M14; single dose 10^−5 M; read-out: Growth inhibition (%)
[34] = tested on: TK-10; test: NCI-60 SRB screen; type: cell-based, human; details: Homo sapiens; TK-10; single dose 10^−5 M; read-out: Growth inhibition (%)
[35] = tested on: SK-OV-3; test: NCI-60 SRB screen; type: cell-based, human; details: Homo sapiens; SK-OV-3; single dose 10^−5 M; read-out: Growth inhibition (%)
[36] = tested on: K-562; test: NCI-60 SRB screen; type: cell-based, human; details: Homo sapiens, K562; K-562; single dose 10^−5 M; read-out: Growth inhibition (%)
[37] = tested on: HOP-62; test: NCI-60 SRB screen; type: cell-based, human; details: Homo sapiens; HOP-62; single dose 10^−5 M; read-out: Growth inhibition (%)
[38] = tested on: SK-MEL-28; test: NCI-60 SRB screen; type: cell-based; details: Homo sapiens; SK-MEL-28; single dose 10^−5 M; read-out: Growth inhibition (%)
[39] = tested on: HT-29; test: NCI-60 SRB screen; type: cell-based; details: Homo sapiens; HT-29; single dose 10^−5 M; read-out: Growth inhibition (%)
[40] = tested on: NCI-H522; test: NCI-60 SRB screen; type: cell-based, human; details: Homo sapiens; NCI-H522; single dose 10^−5 M; read-out: Growth inhibition (%)
[41] = tested on: OVCAR-3; test: NCI-60 SRB screen; type: cell-based, human; details: Homo sapiens; OVCAR-3; single dose 10^−5 M; read-out: Growth inhibition (%)
[42] = tested on: SN12C; test: NCI-60 SRB screen; type: cell-based, human; details: Homo sapiens, SN12C; SN 12 C; single dose 10^−5 M; read-out: Growth inhibition (%)
[43] = tested on: UO-31; test: NCI-60 SRB screen; type: cell-based, human; details: Homo sapiens; UO-31; single dose 10^−5 M; read-out: Growth inhibition (%)
[44] = tested on: SR; test: NCI-60 SRB screen; type: cell-based; details: Homo sapiens, single dose 10^−5 M, read-out: Growth inhibition (%)

CCN1CCN(C2C(=O)NC(c3cccc([N+](=O)[O-])c3)c3sc4c(F)cccc4c32)CC1 (stereo not shown) [Compound 6a, 4-(4-Ethylpiperazin-1-yl)-8-fluoro-1-(3-nitrophenyl)-1,2-dihydro[1]benzo thieno[2,3-c]pyridin-3(4H)-one] was tested, and the inhibition at 10 µM [1] was 18.4%, the inhibition at 10 µM [2] was 0.49% and the inhibition at 10 µM [3] was -7.34%. The inhibition at 10 µM [4] was -0.94%, the inhibition at 10 µM [5] was 8.9% and the inhibition at 10 µM [6] was -14.7%. For the same compound, the inhibition at 10 µM [7] was -7.17%, the inhibition at 10 µM [8] was -2.24% and the inhibition at 10 µM [9] was -2.64%. The inhibition at 10 µM [10] was -13.3%, the inhibition at 10 µM [11] was -3.39% and the inhibition at 10 µM [12] was -0.71%. For the same compound, the inhibition at 10 µM [13] was -24%, the inhibition at 10 µM [14] was -6.65% and the inhibition at 10 µM [15] was 2.02%. The inhibition at 10 µM [16] was -13.8%, the inhibition at 10 µM [17] was -15% and the inhibition at 10 µM [18] was 7.67%. The inhibition at 10 µM [19] was 10%, the inhibition at 10 µM [20] was -1.02% and the inhibition at 10 µM [21] was 6.68%. It also gave an inhibition at 10 µM [22] of -2%, an inhibition at 10 µM [23] of -3.44% and an inhibition at 10 µM [24] of 0.82%. The inhibition at 10 µM [25] was -2.46%, the inhibition at 10 µM [26] was 6.81% and the inhibition at 10 µM [27] was -1.71%. For the same compound, the inhibition at 10 µM [28] was -2.46%, the inhibition at 10 µM [29] was -1.88% and the inhibition at 10 µM [30] was 5.15%. The inhibition at 10 µM [31] was 9.9%, the inhibition at 10 µM [32] was 16.4% and the inhibition at 10 µM [33] was -1.65%. It also gave an inhibition at 10 µM [34] of -51.9%, an inhibition at 10 µM [35] of -1.47% and an inhibition at 10 µM [36] of 11%. The inhibition at 10 µM [37] was 8.57%, the inhibition at 10 µM [38] was -13% and the inhibition at 10 µM [39] was -2.32%. For the same compound, the inhibition at 10 µM [40] was 0.67%, the inhibition at 10 µM [41] was 0.35% and the inhibition at 10 µM [42] was 2.15%. For the same compound, the inhibition at 10 µM [43] was 35.8% and the inhibition at 10 µM [44] was 8.6%.
O=C1NC(c2cccc([N+](=O)[O-])c2)c2sc3c(F)cccc3c2C1N1CCOCC1 (stereo not shown) [Compound 6b, 8-Fluoro-4-morpholino-1(3-nitrophenyl)-1,2-dihydro[1]benzothieno[2,3-c]pyridin-3(4H)-one] showed an inhibition at 10 µM [1] of 23%, an inhibition at 10 µM [2] of -2.43% and an inhibition at 10 µM [3] of -0.83%. It also gave an inhibition at 10 µM [4] of 2.35%, an inhibition at 10 µM [5] of 3.55% and an inhibition at 10 µM [6] of -10.7%. For the same compound, the inhibition at 10 µM [7] was -4.99%, the inhibition at 10 µM [8] was 2.98% and the inhibition at 10 µM [9] was -9.63%. For the same compound, the inhibition at 10 µM [10] was -12.7%, the inhibition at 10 µM [11] was 1.1% and the inhibition at 10 µM [12] was 3.19%. For the same compound, the inhibition at 10 µM [13] was 6.95%, the inhibition at 10 µM [14] was 0.3% and the inhibition at 10 µM [15] was 2.6%. For the same compound, the inhibition at 10 µM [16] was -10.9%, the inhibition at 10 µM [17] was -11.1% and the inhibition at 10 µM [18] was 6.1%. For the same compound, the inhibition at 10 µM [19] was 19.4%, the inhibition at 10 µM [20] was 13.3% and the inhibition at 10 µM [21] was 12.5%. It also gave an inhibition at 10 µM [22] of 3%, an inhibition at 10 µM [23] of 0.18% and an inhibition at 10 µM [24] of 0.21%. For the same compound, the inhibition at 10 µM [25] was -0.89%, the inhibition at 10 µM [26] was 4.34% and the inhibition at 10 µM [27] was 0.57%. For the same compound, the inhibition at 10 µM [28] was 1.78%, the inhibition at 10 µM [29] was 5.78% and the inhibition at 10 µM [30] was 7.48%. The inhibition at 10 µM [31] was 7.9%, the inhibition at 10 µM [32] was 21.5% and the inhibition at 10 µM [33] was -1.23%. The inhibition at 10 µM [34] was -28.2%, the inhibition at 10 µM [35] was 0.4% and the inhibition at 10 µM [36] was 6.63%. It also gave an inhibition at 10 µM [37] of 12.7%, an inhibition at 10 µM [38] of -11.5% and an inhibition at 10 µM [39] of 3.1%. The inhibition at 10 µM [40] was 10.4%, the inhibition at 10 µM [41] was 1.9% and the inhibition at 10 µM [42] was 2.85%. For the same compound, the inhibition at 10 µM [43] was 31.8% and the inhibition at 10 µM [44] was 14.4%.
